Earlier results as cited in patent US20250161386A1, “METHOD OF IMPROVING COGNITIVE FUNCTION IN ADULTS” (SEMPERA ORGANICS, INC., priority 2023, published 2025).

Key:
[1] = rat, oral administration of H. erinaceus mycelia extract
[2] = tested on: pro-brain-derived neurotrophic factor (BDNF); conditions: mice, after administration

SMILES | time of peak plasma concentration post dose [1] [min] | circulating pro-BDNF [2]
CC(C)C1=C2[C@H]3CCC4=C(O)C(=O)[C@@]5(O)CO[C@H]6O[C@@H]([C@@H]4[C@]65O)[C@]3(C)CC[C@@]2(C)CC1 [erinacine S] | 270 | –
CCCCCCCCCCCCCCCC(=O)OCc1cc(OC)c(C/C=C(\C)CCC=C(C)C)c(O)c1C=O [hericene A] | – | increase
